Read-outs that look alike come from different tables or passages of the source.
Assays:
[1] = system: anaesthetized guinea-pigs (QTc interval of the ECG); assay: Anaesthetized guinea-pig QT; format: in vivo; conditions: for QTc increase of 5% over vehicle (risk signal): low, medium and high doses; for increase (change) of baseline-corrected QTc over vehicle / mean baseline-corrected QTc: highest dose level; for increase (change) of baseline-corrected QTc over vehicle / mean baseline-corrected QTc / effect on QT/QTc interval in the guinea-pig model (in words): i.v. infusion over 10 min
[2] = Drug concentrations in plasma of guinea-pigs; format: in vivo; conditions: anaesthetized guinea-pig
plasma proteins = conditions: human; cited from earlier work
[3] = target: T1, hERG potassium channels stably expressed in CHO-K1 cells (Homo sapiens, UniProt Q12809); conditions: for hERG inhibition (in words): group C drugs: at the highest concentration permitted by solubility
T1 sequence (Q12809 whole entry): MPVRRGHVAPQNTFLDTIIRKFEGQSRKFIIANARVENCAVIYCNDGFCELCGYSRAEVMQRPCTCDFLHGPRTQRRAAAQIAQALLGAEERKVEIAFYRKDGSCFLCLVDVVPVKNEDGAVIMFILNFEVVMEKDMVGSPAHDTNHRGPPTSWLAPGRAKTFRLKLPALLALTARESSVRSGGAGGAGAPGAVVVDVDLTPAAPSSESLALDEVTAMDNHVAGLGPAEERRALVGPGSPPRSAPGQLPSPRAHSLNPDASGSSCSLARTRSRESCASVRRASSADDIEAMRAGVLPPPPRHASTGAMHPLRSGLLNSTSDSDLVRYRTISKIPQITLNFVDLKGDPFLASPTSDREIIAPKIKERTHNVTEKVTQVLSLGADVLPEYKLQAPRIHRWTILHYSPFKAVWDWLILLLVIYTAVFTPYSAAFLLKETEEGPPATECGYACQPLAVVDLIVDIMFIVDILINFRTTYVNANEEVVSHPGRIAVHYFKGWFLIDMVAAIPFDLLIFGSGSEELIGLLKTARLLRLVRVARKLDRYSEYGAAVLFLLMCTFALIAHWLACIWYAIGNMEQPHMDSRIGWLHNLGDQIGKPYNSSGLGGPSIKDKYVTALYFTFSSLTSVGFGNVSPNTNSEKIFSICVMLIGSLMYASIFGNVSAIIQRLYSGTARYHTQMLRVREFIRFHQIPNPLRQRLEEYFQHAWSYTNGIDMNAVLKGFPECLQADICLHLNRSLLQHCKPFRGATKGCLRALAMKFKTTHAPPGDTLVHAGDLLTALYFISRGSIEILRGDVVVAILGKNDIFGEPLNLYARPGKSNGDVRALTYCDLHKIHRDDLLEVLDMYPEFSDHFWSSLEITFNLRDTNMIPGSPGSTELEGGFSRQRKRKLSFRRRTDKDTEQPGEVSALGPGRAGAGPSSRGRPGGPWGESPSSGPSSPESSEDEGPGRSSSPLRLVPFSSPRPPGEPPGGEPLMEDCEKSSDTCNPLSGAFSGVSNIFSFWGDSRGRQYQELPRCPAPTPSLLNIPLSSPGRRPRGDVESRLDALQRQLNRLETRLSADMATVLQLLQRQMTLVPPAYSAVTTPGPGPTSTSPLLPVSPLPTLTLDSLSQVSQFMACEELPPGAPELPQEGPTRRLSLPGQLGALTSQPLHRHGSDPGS

[4] = target: T1, hERG potassium channels stably expressed in CHO-K1 cells; assay: cell-based; conditions: 25 °C, 400-ms pulse protocol
[5] = system: anaesthetized guinea-pigs; assay: Heart rate and mean blood pressure recordings in anaesthetized guinea-pigs; format: in vivo, guinea-pig; conditions: limited the maximum dose to 3 mg kg^−1
[6] = read-out: Human plasma Cmax; single 400 mg dose in humans; cited from earlier work

For `CC(C)NCC(O)COc1cccc2ccccc12` (stereo not shown) [Propranolol], the “QTc increase of 5% over vehicle (risk signal)” value (“QTc increase of 5% over vehicle” below) [1] was “did not reach the 5% increase of QTc”, the Peak plasma level ([2]; 0.3 mg kg^−1 i.v. over 10 min) was 0.50±0.03 (3) μm and the Peak plasma level ([2]; 1 mg kg^−1 i.v. over 10 min) was 1.84±0.41 (3) μm. The Peak plasma level ([2]; 3 mg kg^−1 i.v. over 10 min) was 4.65±0.40 (5) μm and the Protein binding (plasma proteins) was 85%.

In the case of `CC(C)NCC(O)c1ccc(NS(C)(=O)=O)cc1` (racemic) [D,L-Sotalol], the Peak plasma level ([2]; 1 mg kg^−1 i.v. over 10 min) is reported as 18.2±1.5 (5) μm, the Peak plasma level ([2]; 3 mg kg^−1 i.v. over 10 min) is reported as 41.3±4.8 (4) μm and the Peak plasma level ([2]; 10 mg kg^−1 i.v. over 10 min) is reported as 145.9±16.6 (5) μm.

With `O=C1Cc2cc(CCN3CCN(c4nsc5ccccc45)CC3)c(Cl)cc2N1` [Ziprasidone] the “Free safety margin (hERG IC50/ free Cmax)” value (“Free safety margin” below) ([3]; human, pH 7.4) was 286.45, the “Total safety margin (hERG IC50/ total Cmax)” value (“Total safety margin” below) ([3]; human, pH 7.4) was 0.573 and the Peak plasma level ([2]; 0.1 mg kg^−1 i.v. over 10 min) was 1.1±0.2 (4) μm. For the same compound, the Peak plasma level ([2]; 0.3 mg kg^−1 i.v. over 10 min) was 1.2±0.1 (2) μm and the Peak plasma level ([2]; 1 mg kg^−1 i.v. over 10 min) was 4.0±2.2 (2) μm.

For `C[C@@H]1CN(c2c(F)c(N)c3c(=O)c(C(=O)O)cn(C4CC4)c3c2F)C[C@H](C)N1` [Sparfloxacin], the “increase (change) of baseline-corrected QTc over vehicle” value (shortened to “increase (change)”) [1] was 19.6%, the “mean baseline-corrected QTc” value [1] was 20.0% and the “Free safety margin” value ([3]; human, pH 7.4) was 3.757. The “Total safety margin” value ([3]; human, pH 7.4) was 2.477, the Peak plasma level ([2]; 3 mg kg^−1 i.v. over 10 min) was 23.5±4.2 (3) μm and the Peak plasma level ([2]; 10 mg kg^−1 i.v. over 10 min) was 80.4±9.1 (5) μm. For the same compound, the Peak plasma level ([2]; 30 mg kg^−1 i.v. over 10 min) was 159.4±22.4 (4) μm and the IC50 [4] was 24 µM.

In the case of `O=C(CCCN1CC=C(n2c(=O)[nH]c3ccccc32)CC1)c1ccc(F)cc1` [Droperidol], the Peak plasma level ([2]; 0.03 mg kg^−1 i.v. over 10 min) is reported as 0.55±0.07 (3) μm, the Peak plasma level ([2]; 0.1 mg kg^−1 i.v. over 10 min) is reported as 0.62±0.05 (5) μm and the Peak plasma level ([2]; 0.3 mg kg^−1 i.v. over 10 min) is reported as 1.21±0.34 (5) μm.

With `CC/C(=C(\c1ccccc1)c1ccc(OCCN(C)C)cc1)c1ccccc1` [Tamoxifen] the “mean baseline-corrected QTc” value [1] was 8.4%, the Peak plasma level ([2]; 3 mg kg^−1 i.v. over 10 min) was 3.8±0.8 (4) μm and the Peak plasma level ([2]; 10 mg kg^−1 i.v. over 10 min) was 10.5±2.1 (5) μm. The Peak plasma level ([2]; 30 mg kg^−1 i.v. over 10 min) was 60.0±20.0 (5) μm.

For `COc1cc(N)c(Cl)cc1C(=O)NC1CCN(CCCOc2ccc(F)cc2)CC1OC` (stereo not shown) [Cisapride], the Peak plasma level ([2]; 0.1 mg kg^−1 i.v. over 10 min) was 0.037±0.023 (4) μm, the Peak plasma level ([2]; 0.3 mg kg^−1 i.v. over 10 min) was 0.129±0.032 (4) μm and the Peak plasma level ([2]; 1 mg kg^−1 i.v. over 10 min) was 0.496±0.085 (5) μm.

With `CC(=O)Oc1ccccc1C(=O)O` [Aspirin] the “QTc increase of 5% over vehicle” value [1] was “did not reach the 5% increase of QTc”, the “hERG inhibition (in words)” value [3] was “no hERG inhibition was observed” and the “Free safety margin” value ([3]; hERG IC50 divided by human free plasma Cmax) was greater than 4512. The “Free safety margin” value ([3]; hERG IC50 divided by human free plasma Cmax, listed as aspirin) was “above 300”, the Peak plasma level ([2]; 1 mg kg^−1 i.v. over 10 min) was 31.1±2.3 (5) μm and the Peak plasma level ([2]; 3 mg kg^−1 i.v. over 10 min) was 74.6±2.1 (5) μm. For the same compound, the Peak plasma level ([2]; 10 mg kg^−1 i.v. over 10 min) was 468±78 (4) μm and the IC50 [4] was greater than 100000 µM.

In the case of `C=C[C@H]1C[N@@]2CC[C@H]1C[C@@H]2[C@@H](O)c1ccnc2ccc(OC)cc12` [Quinidine], the Peak plasma level ([2]; 3 mg kg^−1 i.v. over 10 min) is reported as 6.2±0.08 (3) μm and the Peak plasma level ([2]; 10 mg kg^−1 i.v. over 10 min) is reported as 27.8±8.0 (5) μm.

For `O=C(CCCN1CCC(O)(c2ccc(Cl)cc2)CC1)c1ccc(F)cc1` [Haloperidol], the “Free safety margin” value ([3]; human, pH 7.4) is given as 1.4, the “Total safety margin” value ([3]; human, pH 7.4) is given as 0.1 and the Protein binding (plasma proteins) is given as 90%.

In the case of `CC1(C)S[C@@H]2[C@H](NC(=O)[C@H](N)c3ccc(O)cc3)C(=O)N2[C@H]1C(=O)O` [Amoxicillin], the Peak plasma level ([2]; 3 mg kg^−1 i.v. over 10 min) is reported as 4.8±0.5 (5) μm, the Peak plasma level ([2]; 10 mg kg^−1 i.v. over 10 min) is reported as 14.6±1.4 (4) μm and the Peak plasma level ([2]; 20 mg kg^−1 i.v. over 10 min) is reported as 30.3±2.5 (5) μm.

For `COc1ccc(CCN(C)CCCC(C#N)(c2ccc(OC)c(OC)c2)C(C)C)cc1OC` (stereo not shown) [Verapamil], the “QTc increase of 5% over vehicle” value [1] was “did not reach the 5% increase of QTc”.

For `CC(C)(C)c1ccc(C(O)CCCN2CCC(C(O)(c3ccccc3)c3ccccc3)CC2)cc1` (stereo not shown) [Terfenadine], the “haemodynamic effects (in words)” value [5] was “marked bradycardia and resultant hypotension”.

With `C[C@H](CS)C(=O)N1CCC[C@H]1C(=O)O` [Captopril] the “increase (change)” value [1] was −7.3%, the “mean baseline-corrected QTc” value [1] was −6.0% and the “effect on QT/QTc interval in the guinea-pig model (in words)” value [1] was “QTc actually dropped below vehicle”. The “QTc increase of 5% over vehicle” value [1] was “did not reach the 5% increase of QTc”, the “hERG inhibition (in words)” value [3] was “no hERG inhibition was observed” and the Peak plasma level ([2]; 3 mg kg^−1 i.v. over 10 min) was 57.8±1.6 (2) μm. For the same compound, the Peak plasma level ([2]; 10 mg kg^−1 i.v. over 10 min) was 142±15 (2) μm and the Peak plasma level ([2]; 30 mg kg^−1 i.v. over 10 min) was 313±112 (2) μm.

With `COc1c(N2C[C@@H]3CCCN[C@@H]3C2)c(F)cc2c(=O)c(C(=O)O)cn(C3CC3)c12` [Moxifloxacin] the “increase (change)” value [1] was 16.8%, the “mean baseline-corrected QTc” value [1] was 18.3% and the “effect on QT/QTc interval in the guinea-pig model (in words)” value [1] was “dose-dependent QTc prolongation”. The Cmax [6] was roughly 7 µM, the Peak plasma level ([2]; 1 mg kg^−1 i.v. over 10 min) was 2.08±0.28 (4) μm and the Peak plasma level ([2]; 5 mg kg^−1 i.v. over 10 min) was 30.6±7.2 (4) μm. For the same compound, the Peak plasma level ([2]; 10 mg kg^−1 i.v. over 10 min) was 80.5±4.0 (5) μm.
